Results: patent US6737057B1, “Compounds, compositions and methods for the endocytic presentation of immunosuppressive factors” (The University of Tennessee Research Corporation, priority 1997, dated 2004)
Values joined by “and” are separate entries in the source; they are usually repeats but may differ in a detail not shown here. Equal values may be shown once. “Also recorded” adds a separate entry of the source.

T1: I-A^S class II molecules (Mus musculus, UniProt P06345+P14437)
T1 sequence (P14437 1-233): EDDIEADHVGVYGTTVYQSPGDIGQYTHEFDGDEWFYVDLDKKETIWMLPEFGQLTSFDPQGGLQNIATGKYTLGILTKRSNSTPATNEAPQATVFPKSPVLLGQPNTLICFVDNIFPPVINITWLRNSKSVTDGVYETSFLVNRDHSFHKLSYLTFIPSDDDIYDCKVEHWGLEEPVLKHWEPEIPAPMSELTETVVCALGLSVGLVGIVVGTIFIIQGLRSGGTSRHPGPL
T1 sequence (P06345 28-263): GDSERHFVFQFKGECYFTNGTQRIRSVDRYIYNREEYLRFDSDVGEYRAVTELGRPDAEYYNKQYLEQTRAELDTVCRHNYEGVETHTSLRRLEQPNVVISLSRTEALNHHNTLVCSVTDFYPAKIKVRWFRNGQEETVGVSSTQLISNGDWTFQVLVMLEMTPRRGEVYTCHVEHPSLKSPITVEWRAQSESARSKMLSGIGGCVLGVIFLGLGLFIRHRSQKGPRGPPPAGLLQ

B1: proteolipid protein (protein, UniProt P60203 2-277, looked up)
Myelin proteolipid protein: GLLECCARCLVGAPFASLVATGLCFFGVALFCGCGHEALTGTEKLIETYFSKNYQDYEYLINVIHAFQYVIYGTASFFFLYGALLLAEGFYTTGAVRQIFGDYKTTICGKGLSATVTGGQKGRGSRGQHQAHSLERVCHCLGKWLGHPDKFVGITYALTVVWLLVFACSAVPVYIYFNTWTTCQSIAFPSKTSASIGSLCADARMYGVLPWNAFPGKVCGSNLLSICKTAEFQMTFHLFIAAFVGAAATLVSLLTFMIAATYNFAVLKLMGRGTKF
notes: native proteolipid protein purified from rat brain

Key:
PLP-LR specific T cells = test: In vivo T cell response to PLP-LR after co-administration with Ig-PLP1; parameters: species or system SJL mice; details: co-administered with Ig-PLP1; lymph node and spleen cells, PLP-LR 15 μg/mL; FIG. 9
Experimental: Lymph node and spleen cells were obtained in the same manner as set forth in Example X following co-administration of Ig-PLP1 and Ig-PLP-LR. Proliferative responses in individual mice were also measured using the methods set out in the previous Example following in vitro stimulation with either free PLP1 peptide or PLP-LR peptide at 15 μg/mL. The results of the assays using lymph node and spleen cells are detailed in FIGS. 9A and 9B respectively.

4E3 T cell hybridomas = test: Prepulsed proliferation assay: antagonism of agonist mediated T cell activation; format: cell-based, mouse; parameters: key to T cell antagonism, Stimulator (Agonist) PLP1 / T cell antagonism, Stimulator (Agonist) PLP / T cell antagonism, Stimulator (Agonist) Ig-PLP1: +: a plus sign indicates inhibition of IL-2 production and therefore antagonism; −: a minus sign indicates little or no inhibition of IL-2 production and therefore little or no antagonism; details: for antagonism of Ig-PLP1 mediated T cell activation (IL-2 production): agonist 0.05 μM Ig-PLP1, FIG. 5B; for control thymidine incorporation (agonist, no antagonist): 1 μM PLP1 peptide, 0.05 μM Ig-PLP1 or 7 μM PLP, background not deducted
Experimental: Irradiated (3,000 rads) SJL splenocytes (used as APCs) were incubated in 96-well round bottom plates (5×10^5 cells/well/50 μl) with the selected agonist (1 μM PLP1 peptide, 0.05 μM Ig-PLP1 or 7 μM PLP) and various concentrations of antagonist (100 μl/well) for 1 hour. Subsequently, 4E3 T cell hybridomas (5×10^4 cells/well/50 μl) were added and the culture was continued overnight. IL-2 production in the supernatant, determined as in Example VI using HT-2 cells, was used as measure of T cell activation.
Cpm values obtained when the APCs were incubated with the agonist but no antagonist was used as control thymidine incorporation. This value was 7,503±1,302 for Ig-PLP1; 31,089±3,860 for PLP1 peptide; and 8,268±915 for PLP. The cpm value obtained when the APCs were incubated with no agonist or antagonist was used as background (BG). This value was 1,560±323 for Ig-PLP1; 2,574±290 for PLP1 peptide; and 2,127±177 for PLP. The percent control thymidine incorporation was calculated as follows: [(cpm obtained in the presence of test antagonist)−(BG)]/[(cpm control thymidine incorporation value)−(BG)]. Each point represents the mean of triplicates.

PLP1 specific T cells = test: In vivo inhibition of T cell response to PLP1 on co-administration with Ig-PLP1; parameters: species or system SJL mice
Experimental: Mice were co-immunized with mixtures of either 50 μg Ig-PLP1 and 150 μg Ig-PLP-LR or 50 μg Ig-PLP1 combined with 150 μg Ig-W. In particular, individual mice from three groups (4 mice per group) were injected sc, as in Example X with a 200 μl mixture (PBS/CFA, 1:1 v/v) containing one of the following mixtures: 50 μg Ig-PLP1 and 150 μg Ig-PLP-LR; 50 μg Ig-PLP1 and 150 μg Ig-W; or Ig-PLP1 and 100 μg PLP-LR peptide. Splenic and lymph node T cell responses were analyzed at day 10 post immunization using the protocol set forth in Example X. The lymph node cells were assayed at 4×10^5 cells/well and the spleen cells at 10×10^5 cells/well. The agonist ligand was PLP1 at 15 μg/mL. Results for the lymph node and spleen cells, shown in FIGS. 8A and 8B respectively and summarized in Table 2 below, represent the mean±SD of triplicates after deduction of background cpm obtained with no agonist in the media.
(mean cpm of triplicates obtained with PLP1 stimulation−mean cpm triplicate BG)/(mean cpm of triplicates obtained with PPD−mean cpm triplicate BG)×100

[1] = system: PLP1-specific T cell hybridoma 4E3; test: T cell hybridoma activation assay (IL-2 production), 4E3; format: cell-based, mouse; details: for IL-2 production by T cell hybridoma 4E3: SJL splenocyte APCs, 0.1 μM Ig chimeras, 1 μM peptides, 1.7 μM PLP, FIG. 3A; for EC50: 4E3 hybridoma, irradiated SJL/J splenocytes, IL-2 by HT-2 3H-thymidine incorporation, FIG. 4, read-out: stimulation to half the maximum level
Experimental: (§1) PLP1-specific T cell hybridomas 5B6 and 4E3 and the IL-2 dependent HT-2 T helper cells were obtained from The Eunice Kennedy Shriver Center, Waltham, Mass. The 5B6 and 4E3 T cells recognize the peptide PLP1 in association with 1-A^S class II MHC and produces IL-2 when incubated with it as reported by Kuchroo et al., J. Immunol. 153:3326-3336, 1994 which is incorporated herein by reference. Conversely, Kuchroo et al. report that when stimulated with PLP1 and then with PLP-LR both 5B6 and 4E3 cells no longer produce IL-2.
(§2) Using substantially the same technique as Kuchroo et al., activation of the T cell hybridomas for various agonists was performed as follows. Irradiated (3,000 rads) splenocytes from SJL mice were used as antigen presenting cells (APCs) for this Example. The irradiated splenocytes were incubated in 96-well round bottom plates (5×10^5 cells/well/50 μl) with graded concentrations of antigens (100 μl/well). After one hour, T cell hybridomas, i.e. 5B6 of 4E3 (5×10^4 cells/well/50 μl) were added and the culture was continued overnight. Activation (or proliferation) of the T cells was assessed by measuring production of IL-2 in the culture supernatant. This was done by ^3H-thymidine incorporation using the IL-2 dependent HT-2 cells. That is, when IL-2 is present (i.e. secreted by activated T cells) the HT-2 cells proliferate, incorporating labeled thymidine from the surrounding media.
(§3) The culture media used to carry out these assays was DMEM supplemented with 10% FBS, 0.05 mM 2-mercaptoethenol, 2 mM glutamine, 1 mM sodium puryvate and 50 μg/mL gentamycin sulfate. Briefly, culture supernatants (100 μl/well) were incubated with HT-2 cells (1×10^4 cells/well/100 μl) in 96-well flat bottom plates for 24 hours. Subsequently 1 μCi ^3H-thymidine was added per well and the culture was continued for an additional 12-14 hours. The cells were then harvested on glass fiber filters and the non incorporated ^3H-thymidine was washed away. Incorporated thymidine was then counted using the trace 96 program and an Inotech β counter. It will be appreciated that those wells containing higher levels of IL-2 (secreted by the activated T cell hybridoma lines) will induce higher levels of HT-2 cell proliferation and register increased levels of ^3H-thymidine incorporation.
Specifically, different concentrations of the three antigens (i.e. agonists) were incubated with irradiated SJL/J splenocytes which were subsequently associated with 4E3 T cell hybridomas. IL-2 production was measured by ^3H-thymidine incorporation using the IL-2 dependent HT-2 cells as described in Example VI. Each point represents the mean of triplicates.

I-A^S class II molecules = target: T1, I-A^S class II molecules; details: cited from earlier work
T cell hybridomas = details: reported by Kuchroo et al.; cited from earlier work
[2] = system: PLP1-specific T cell hybridoma 5B6; test: T cell hybridoma activation assay (IL-2 production), 5B6; format: cell-based, mouse; details: SJL splenocyte APCs; 0.1 μM Ig chimeras, 1 μM peptides, 1.7 μM PLP; FIG. 3B
Experimental: as §1, §2, §3

SJL mice = details: cited from earlier work

EC50 [1] [nM] | Molecule | T cell response to PLP-LR (PLP-LR specific T cells) | antagonism of Ig-PLP1 mediated T cell activation (IL-2 production) (4E3 T cell hybridomas) | IC50 (4E3 T cell hybridomas; agonist 1 μM PLP1 peptide, FIG. 5A, read-out: Inhibition of IL-2 production to half the maximum level (60% control thymidine incorporation)) [nM] | antagonism of native PLP mediated T cell activation (IL-2 production) (4E3 T cell hybridomas; agonist 7 μM PLP, FIG. 5C) | T cell antagonism, Stimulator (Agonist) Ig-PLP1 (4E3 T cell hybridomas; agonist Ig-PLP1, summary of FIG. 5) | T cell antagonism, Stimulator (Agonist) PLP1 (4E3 T cell hybridomas; agonist PLP1, summary of FIG. 5) | T cell antagonism, Stimulator (Agonist) PLP (4E3 T cell hybridomas; agonist PLP, summary of FIG. 5) | PLP1/PPD (%) (PLP1 specific T cells; co-administered sc with 50 μg Ig-PLP1 (150 μg Ig or 100 μg peptide), day 10, individual mice 1-4, PLP1 specific relative to PPD specific proliferation, listed as PLP-LR peptide) | reduction of immune response to PLP1 peptide (PLP1 specific T cells; co-administered with Ig-PLP1, lymph node and spleen cells, FIG. 8) | IL-2 production by T cell hybridoma 4E3 [1] | binding to I-A^S class II molecules (I-A^S class II molecules) | effect on IL-2 production of T cell hybridomas stimulated with PLP1 (T cell hybridomas) | IL-2 production by T cell hybridoma 5B6 [2] | antagonism of PLP1 peptide mediated T cell activation (IL-2 production) (4E3 T cell hybridomas; agonist 1 μM PLP1 peptide, FIG. 5A) | encephalitogenic activity / EAE induction (SJL mice) | control thymidine incorporation (agonist, no antagonist) (4E3 T cell hybridomas)
 | HSLGKLLGRPNKF [PLP-LR, analog of PLP1 in which Trp144 and His147 were replaced with Leu and Arg] | induction of PLP-LR-specific response | did not show any significant antagonism; also recorded: failed to inhibit T cell activation | 9000 | failed to inhibit T cell activation | − | + | − | 93% and 100% and 81% and 91% | no indication that the PLP1 response was reduced; also recorded: no evident reduction in the proliferative response to PLP1 | did not stimulate 5B6 and 4E3 to produce significant levels of IL-2 | bind well | inhibits IL-2 production | did not stimulate 5B6 and 4E3 to produce significant levels of IL-2 |  |  | 
 | NTWTTCQSIAFPSK [PLP2, a peptide fragment of PLP comprising aa residues 178-191] |  | did not show any significant antagonism |  |  |  |  |  |  |  | did not induce the production of IL-2 | binds |  | did not induce the production of IL-2 | antagonist effects were not observed | induces EAE | 
600 | HSLGKWLGHPNKF [PLP1, a peptide fragment of PLP comprising aa residues 139-151] |  |  |  |  |  |  |  |  |  | substantial levels of IL-2 | bind well |  | substantial levels of IL-2 |  | encephalitogenic | 31,089±3,860 cpm
500 | B1 |  |  |  |  |  |  |  |  |  | substantial levels of IL-2 |  |  | substantial levels of IL-2 |  |  | 8,268±915 cpm
